Measured values: patent US9402875B2, “Amidated dopamine neuron stimulating peptide restoration of mitochondrial activity” (University of Kentucky Research Foundation, priority 2006, dated 2016)
Ends that are not written are not given here.

What was measured:
Type in all cases: cell-based
[1] = tested on: E14 SD rat embryo primary dopaminergic neurons from the ventral mesencephalon
Experimental: DNSP-11 treatment of Mesencephalic Cells: Timed pregnant SD rats (Harlan) were used to obtain the ventral mesencephalon from E14 fetuses. The dissected tissue was collected in cold Neurobasal™ medium and rinsed twice with cold Dulbecco's PBS. The cells were chemically (TrypLE®) and mechanically dissociated to yield a single cell suspension. The solution was centrifuged at 169 g for 6 minutes and the pellet was resuspended in Dulbecco's Modified Eagle Medium (DMEM). Cells were plated in a 25 μL micro-island at a density of 4000 cells/μL on poly-D-lysine coated 24-well plates (Sigma). Following adherence, cells were supplemented with warm NEUROBASAL™ media containing 2 mM glutamine, 1×N2, and 100 units of penicillin/streptomycin. Neurotrophic compounds were added at each media addition, including initial plating and DIV 2. A dose response of the peptides (0.03 ng to 10 ng/mL) was added to a 24-well plate following media supplementation.
The neurotrophic effects of DNSP-11 were studied by comparing its effects to the well-known effects of GDNF on the maintenance of primary mesencephalic cell cultures from E14 SD rat embryos. E14 SD rat embryo primary dopaminergic neurons from the ventral mesencephalon were grown for 5 days in vitro and neurotrophic molecules were added at each media change, including initial plating and day 2. […] These effects were similar to those observed for GDNF in these cells, including an increase in the size of TH+ neurons, which was not observed for DNSP-11 (Table 4).
In Table 1, cell survival and morphological parameters were quantified for control (citrate buffer) and experimental (0.1 ng/ml GDNF or 0.1 ng/ml DNSP-11) conditions. For morphology, five fields per well (minimum of 15 cells/field; 3-4 independent experiments) were photographed at 20× magnification and quantified using a Bioquant Image Analysis System. […] Soma size was not increased by the addition of DNSP-11. A one-way ANOVA was used to test for significance among groups, followed by a Newman-Keuls post hoc analysis. Significance between control and experimental conditions was determined at *p<0.05 and **p<0.01.

MN9D dopaminergic cells = assay: TUNEL assay, protection against 6-OHDA toxicity; details: 1 ng/mL for 1 hour before 100 μM 6-OHDA for 15 min; at 24 h
Experimental: MN9D Cell Cultures: The MN9D cell line has been described by Choi (1991) Brain Res. 552:67-76 and was a gift from Michael Zigmond. Cells were cultured in DMEM supplemented with 10% Fetal Bovine Serum (FBS, Hyclone), 50 U/mL penicillin and streptomycin. For experiments, the cells were plated on 24-well poly-D-lysine in DMEM with 1% (v/v) penicillin-streptomycin. The cells were grown at 37° C. in 5% CO2.
Terminal dUTP Nick-End Labeling (TUNEL) Assay in MN9D Cells: After treatment with DNSP-11, MN9D cells were fixed and labelled to assess degenerative nuclear changes as indicated by the extent of high-molecular weight DNA strand breaks. DNA fragmentation was detected by using steptavidin-horseradish peroxidise conjugate followed by the substrate diaminobenzidine (DAB) generating a colored precipitate. Ratios between apoptotic and total cells were determined (4 random fields/well; 4 wells/ group). Experiments were repeated 3 times.
To evaluate DNSP-11's neuroprotective properties, DNSP-11 was compared to GDNF in its protection against 6-OHDA-induced toxicity in the dopaminergic cell line, MN9D. MN9D dopaminergic cells were incubated for 1 hour with either citrate buffer (control), 1 ng/mL of DNSP-11 or GDNF prior to 100 μM 6-OHDA exposure for 15 min. […]

Erk1/2 = assay: ERK1/2 activation by western blot; details: DNSP-11 0.1 uM or 1 uM or GDNF 50 ng/ml for 20 minutes
Experimental: MN9D and B65 cell were cultured in DMEM; 11995 (containing pyridoxol HCl; Sigma, St. Louis, Mo.) supplemented with 10% fetal bovine serum (HyClone, Logan, Utah), 50 U/mL penicillin and streptomycin with DNSP-11 (0.1 uM or 1 uM) or GDNF (50 ng/ml) for 20 minutes. The cells were then solubilized in Triton-X-100/glycerol lysis buffer and subjected to electrophoresis and western blotting as partially described previously (Jiang et al., Mol Biol Cell 14:859-70 (2003)). To detect phosphorylated Erk (#4377 Cell Signaling) and ERK (#4696 Cell Signaling) by immunoblotting, the cells were directly lysed in the sample loading buffer. Secondary IRDye 700X and IRDye800 conjugated, fluorescent antibodies (Rockland Inc.) were used to detect signal with Odyssey v3.0 scanning software. Several blots were analyzed to determine the linear range of the fluorescence signals, and quantifications were performed using densitometry analysis.

Substance: PPEAPAEDRSL-NH2 [DNSP-11, PPEAPAEDRSL-amide]
- Cell survival ([1]; 0.1 ng/ml, 5 days in vitro, control 100): *161 ± 17
- Average branches per neuron ([1]; 0.1 ng/ml, controls 3.8 ± 0.2 (GDNF), 3.1 ± 0.2 (DNSP-11)): **4.4 ± 0.3
- Soma size (um^2) ([1]; 0.1 ng/ml, controls 171 ± 4 (GDNF), 168 ± 3 (DNSP-11)): 165 ± 5 um^2
- Combined neurite length (um) ([1]; 0.1 ng/ml, controls 242 ± 12 (GDNF), 222 ± 11 (DNSP-11)): **306 ± 23 um
- TH+ neuron counts ([1]; 0.03, 0.1, 1.0 and 10 ng/ml): significantly increase
- percent of TUNEL positive cells (MN9D dopaminergic cells): significant reduction
- phosphorylation of Erk1/2 (ratio of phosphorylated to non-phosphorylated) (Erk1/2; B65 cells): increases significantly
- phosphorylation of Erk1/2 (ratio of phosphorylated to non-phosphorylated) (Erk1/2; MN9D cells): increases significantly
